Test results: paper doi:10.1101/2024.08.13.607785v1 (biorxiv, 2024)
Where two headings read alike, the source gives them in different places. Each block holds one molecule with its values, some of them ahead of it.

Legend:
Test in all cases: biochemical
[1] = target: T1, Interleukin-1 receptor-associated kinase 3 ; IRAK3 ; Q9Y616 (Homo sapiens, UniProt Q9Y616); set-up: species or system human cell line lysate
T1 sequence (Q9Y616 1-596): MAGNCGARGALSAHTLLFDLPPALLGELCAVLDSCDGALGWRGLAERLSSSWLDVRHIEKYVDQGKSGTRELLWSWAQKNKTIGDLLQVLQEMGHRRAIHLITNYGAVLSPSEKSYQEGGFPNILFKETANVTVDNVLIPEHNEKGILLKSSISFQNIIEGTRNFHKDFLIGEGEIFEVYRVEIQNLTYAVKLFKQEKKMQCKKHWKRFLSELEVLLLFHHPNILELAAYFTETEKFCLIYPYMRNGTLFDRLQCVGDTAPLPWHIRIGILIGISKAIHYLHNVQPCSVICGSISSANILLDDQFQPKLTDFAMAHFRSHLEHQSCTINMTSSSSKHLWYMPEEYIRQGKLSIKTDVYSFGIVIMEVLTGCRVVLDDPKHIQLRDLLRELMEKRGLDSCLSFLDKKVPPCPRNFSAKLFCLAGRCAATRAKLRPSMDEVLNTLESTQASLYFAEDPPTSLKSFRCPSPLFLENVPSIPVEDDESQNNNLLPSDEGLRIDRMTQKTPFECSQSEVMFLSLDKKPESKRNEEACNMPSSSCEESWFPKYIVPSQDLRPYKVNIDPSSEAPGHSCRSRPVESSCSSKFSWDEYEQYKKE

[2] = target: Cyclin-dependent kinase 8 ; CDK8 ; P49336 (Homo sapiens, UniProt P49336); set-up: species or system human cell line lysate
[3] = target: Mast/stem cell growth factor receptor Kit ; KIT ; P10721 (Homo sapiens, UniProt P10721); set-up: species or system human cell line lysate
Sequence of Mast/stem cell growth factor receptor Kit ; KIT ; P10721 (P10721 whole entry, one chain of several): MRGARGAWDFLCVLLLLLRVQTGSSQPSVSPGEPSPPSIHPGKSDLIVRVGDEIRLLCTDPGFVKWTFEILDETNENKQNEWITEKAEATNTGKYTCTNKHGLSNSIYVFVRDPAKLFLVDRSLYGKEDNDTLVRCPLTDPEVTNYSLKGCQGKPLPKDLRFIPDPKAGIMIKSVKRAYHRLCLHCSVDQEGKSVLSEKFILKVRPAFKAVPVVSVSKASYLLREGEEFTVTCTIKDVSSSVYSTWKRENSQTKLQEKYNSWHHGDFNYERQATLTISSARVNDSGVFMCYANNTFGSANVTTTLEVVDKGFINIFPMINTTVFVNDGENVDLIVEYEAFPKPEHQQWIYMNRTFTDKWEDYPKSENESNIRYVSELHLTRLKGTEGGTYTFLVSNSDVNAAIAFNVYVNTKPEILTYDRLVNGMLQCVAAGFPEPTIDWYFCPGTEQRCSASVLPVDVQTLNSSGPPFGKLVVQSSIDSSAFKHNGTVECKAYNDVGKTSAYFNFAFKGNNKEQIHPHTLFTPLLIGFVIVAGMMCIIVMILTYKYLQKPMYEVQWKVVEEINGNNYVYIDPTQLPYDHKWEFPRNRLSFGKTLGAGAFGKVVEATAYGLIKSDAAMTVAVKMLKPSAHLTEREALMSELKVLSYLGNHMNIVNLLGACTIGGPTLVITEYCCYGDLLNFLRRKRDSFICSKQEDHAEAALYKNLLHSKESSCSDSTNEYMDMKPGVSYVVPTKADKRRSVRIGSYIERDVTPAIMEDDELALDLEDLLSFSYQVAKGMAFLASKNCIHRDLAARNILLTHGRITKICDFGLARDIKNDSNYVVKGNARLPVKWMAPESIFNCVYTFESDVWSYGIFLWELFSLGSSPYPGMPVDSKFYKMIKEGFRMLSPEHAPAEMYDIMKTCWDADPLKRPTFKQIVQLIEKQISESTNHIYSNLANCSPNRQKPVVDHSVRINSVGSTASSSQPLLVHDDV

[4] = target: Non-receptor tyrosine-protein kinase TYK2 ; TYK2 ; P29597 (Homo sapiens, UniProt P29597); set-up: species or system human cell line lysate
[5] = target: Cyclin-dependent kinase 4 ; CDK4 ; P11802 (Homo sapiens, UniProt P11802); set-up: species or system human cell line lysate
Sequence of Cyclin-dependent kinase 4 ; CDK4 ; P11802 (P11802 whole entry, one chain of several): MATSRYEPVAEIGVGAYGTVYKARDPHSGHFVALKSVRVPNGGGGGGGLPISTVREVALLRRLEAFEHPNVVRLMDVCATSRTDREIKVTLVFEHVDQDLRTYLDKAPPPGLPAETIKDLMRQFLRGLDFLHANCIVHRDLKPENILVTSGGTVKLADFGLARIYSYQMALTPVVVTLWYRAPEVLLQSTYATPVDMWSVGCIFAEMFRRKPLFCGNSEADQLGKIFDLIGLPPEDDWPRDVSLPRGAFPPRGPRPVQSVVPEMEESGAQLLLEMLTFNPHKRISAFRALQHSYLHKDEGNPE

[6] = target: T1, Interleukin-1 receptor-associated kinase 3 ; IRAK3 ; Q9Y616; set-up: species or system mixed lysate of K562, MV4-11, THP-1, NCI-H1155
[7] = target: Cyclin-dependent kinase 12 ; CDK12 ; Q9NYV4 (Homo sapiens, UniProt Q9NYV4); set-up: species or system mixed lysate of K562, MV4-11, THP-1, NCI-H1155
Sequence of Cyclin-dependent kinase 12 ; CDK12 ; Q9NYV4 (Q9NYV4 whole entry, one chain of several): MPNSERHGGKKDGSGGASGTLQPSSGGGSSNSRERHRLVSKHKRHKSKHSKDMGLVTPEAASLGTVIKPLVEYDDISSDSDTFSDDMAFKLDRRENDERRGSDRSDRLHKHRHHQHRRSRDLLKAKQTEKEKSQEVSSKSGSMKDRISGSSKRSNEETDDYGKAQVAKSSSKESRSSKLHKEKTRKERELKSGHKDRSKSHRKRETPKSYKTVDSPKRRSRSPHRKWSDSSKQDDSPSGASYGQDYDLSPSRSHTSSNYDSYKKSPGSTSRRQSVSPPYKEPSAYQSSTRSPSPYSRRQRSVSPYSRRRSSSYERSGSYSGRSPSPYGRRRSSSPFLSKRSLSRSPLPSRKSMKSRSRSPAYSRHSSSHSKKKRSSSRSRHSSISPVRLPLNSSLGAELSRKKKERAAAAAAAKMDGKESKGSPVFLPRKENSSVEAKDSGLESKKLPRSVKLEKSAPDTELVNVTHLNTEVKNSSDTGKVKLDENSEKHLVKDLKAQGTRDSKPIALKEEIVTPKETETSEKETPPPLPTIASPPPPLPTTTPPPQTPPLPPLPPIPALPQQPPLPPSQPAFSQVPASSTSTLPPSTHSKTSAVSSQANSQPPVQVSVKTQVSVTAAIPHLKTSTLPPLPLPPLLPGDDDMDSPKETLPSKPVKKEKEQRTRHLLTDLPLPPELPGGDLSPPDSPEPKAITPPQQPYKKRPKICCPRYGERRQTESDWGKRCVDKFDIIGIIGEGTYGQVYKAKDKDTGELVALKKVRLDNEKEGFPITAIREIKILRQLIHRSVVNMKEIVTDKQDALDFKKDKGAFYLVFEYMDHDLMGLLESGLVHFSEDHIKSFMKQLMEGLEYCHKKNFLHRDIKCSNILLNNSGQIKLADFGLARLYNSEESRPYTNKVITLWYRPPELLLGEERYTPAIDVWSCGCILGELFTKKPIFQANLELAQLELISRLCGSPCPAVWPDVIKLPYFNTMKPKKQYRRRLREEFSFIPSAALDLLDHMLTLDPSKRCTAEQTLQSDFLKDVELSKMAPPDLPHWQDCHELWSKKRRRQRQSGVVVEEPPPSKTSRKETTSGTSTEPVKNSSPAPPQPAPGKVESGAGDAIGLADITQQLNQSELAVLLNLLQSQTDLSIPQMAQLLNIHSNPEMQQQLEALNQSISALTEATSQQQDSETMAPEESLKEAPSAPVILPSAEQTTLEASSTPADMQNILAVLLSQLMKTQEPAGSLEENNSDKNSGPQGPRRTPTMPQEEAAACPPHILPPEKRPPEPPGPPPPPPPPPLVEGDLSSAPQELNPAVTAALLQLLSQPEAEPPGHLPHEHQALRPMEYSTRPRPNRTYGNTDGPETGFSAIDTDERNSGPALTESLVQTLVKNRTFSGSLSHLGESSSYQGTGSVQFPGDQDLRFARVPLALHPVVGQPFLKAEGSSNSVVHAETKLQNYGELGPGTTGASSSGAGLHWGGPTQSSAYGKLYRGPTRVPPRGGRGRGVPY

[8] = target: Cyclin-dependent kinase 9 ; CDK9 ; P50750 (Homo sapiens, UniProt P50750); set-up: species or system mixed lysate of K562, MV4-11, THP-1, NCI-H1155
Sequence of Cyclin-dependent kinase 9 ; CDK9 ; P50750 (P50750 whole entry, one chain of several): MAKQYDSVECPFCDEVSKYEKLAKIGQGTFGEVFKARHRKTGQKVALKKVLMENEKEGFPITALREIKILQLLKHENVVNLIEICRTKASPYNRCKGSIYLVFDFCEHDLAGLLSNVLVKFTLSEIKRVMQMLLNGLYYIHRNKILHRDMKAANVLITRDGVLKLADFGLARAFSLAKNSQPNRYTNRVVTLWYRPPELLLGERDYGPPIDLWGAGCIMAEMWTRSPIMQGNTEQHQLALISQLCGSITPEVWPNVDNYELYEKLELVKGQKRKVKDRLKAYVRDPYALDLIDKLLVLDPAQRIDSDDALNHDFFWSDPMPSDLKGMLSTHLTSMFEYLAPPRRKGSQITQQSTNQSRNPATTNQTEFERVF

[9] = target: Glycogen synthase kinase-3 alpha ; GSK3A ; P49840 (Homo sapiens, UniProt P49840); set-up: species or system mixed lysate of K562, MV4-11, THP-1, NCI-H1155
[10] = target: Cyclin-dependent kinase 6 ; CDK6 ; Q00534 (Homo sapiens, UniProt Q00534); set-up: species or system mixed lysate of K562, MV4-11, THP-1, NCI-H1155
[11] = target: Cyclin-dependent kinase 10 ; CDK10 ; Q15131 (Homo sapiens, UniProt Q15131); set-up: species or system mixed lysate of K562, MV4-11, THP-1, NCI-H1155
[12] = target: Cyclin-dependent kinase 19 ; CDK19 ; Q9BWU1 (Homo sapiens, UniProt Q9BWU1); set-up: species or system mixed lysate of K562, MV4-11, THP-1, NCI-H1155
Sequence of Cyclin-dependent kinase 19 ; CDK19 ; Q9BWU1 (Q9BWU1 whole entry, one chain of several): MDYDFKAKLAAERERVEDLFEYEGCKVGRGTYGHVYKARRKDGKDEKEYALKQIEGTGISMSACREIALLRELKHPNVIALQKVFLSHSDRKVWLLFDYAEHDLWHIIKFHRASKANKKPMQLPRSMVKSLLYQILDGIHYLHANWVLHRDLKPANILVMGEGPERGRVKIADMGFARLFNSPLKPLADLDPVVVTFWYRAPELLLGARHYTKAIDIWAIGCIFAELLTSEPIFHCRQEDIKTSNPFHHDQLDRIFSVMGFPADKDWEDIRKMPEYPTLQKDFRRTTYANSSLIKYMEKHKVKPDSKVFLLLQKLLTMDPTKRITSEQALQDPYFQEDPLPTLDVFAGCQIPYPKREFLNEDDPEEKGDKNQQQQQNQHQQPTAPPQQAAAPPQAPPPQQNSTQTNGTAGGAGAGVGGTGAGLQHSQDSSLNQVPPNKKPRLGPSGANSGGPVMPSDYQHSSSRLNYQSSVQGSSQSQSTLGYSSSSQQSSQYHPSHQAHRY

[13] = target: Calcium/calmodulin-dependent protein kinase kinase 1 ; CAMKK1 ; Q8N5S9 (Homo sapiens, UniProt Q8N5S9); set-up: species or system mixed lysate of K562, MV4-11, THP-1, NCI-H1155
Sequence of Calcium/calmodulin-dependent protein kinase kinase 1 ; CAMKK1 ; Q8N5S9 (Q8N5S9 whole entry, one chain of several): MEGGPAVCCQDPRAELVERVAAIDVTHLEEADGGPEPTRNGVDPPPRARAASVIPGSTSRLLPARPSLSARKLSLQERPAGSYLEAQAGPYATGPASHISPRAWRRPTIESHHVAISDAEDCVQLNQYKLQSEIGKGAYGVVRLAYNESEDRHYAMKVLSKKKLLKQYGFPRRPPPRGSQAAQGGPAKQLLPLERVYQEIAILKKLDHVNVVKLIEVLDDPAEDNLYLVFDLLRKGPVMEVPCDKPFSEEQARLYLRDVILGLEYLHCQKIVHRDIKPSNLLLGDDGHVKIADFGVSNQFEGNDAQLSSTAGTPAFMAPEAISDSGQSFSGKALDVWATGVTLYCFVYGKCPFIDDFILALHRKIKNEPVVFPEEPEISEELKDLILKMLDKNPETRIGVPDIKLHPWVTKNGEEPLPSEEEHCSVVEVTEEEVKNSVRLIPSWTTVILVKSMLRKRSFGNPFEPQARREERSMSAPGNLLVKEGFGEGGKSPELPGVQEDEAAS

[14] = target: Cyclin-dependent kinase 16 ; CDK16 ; Q00536 (Homo sapiens, UniProt Q00536); set-up: species or system mixed lysate of K562, MV4-11, THP-1, NCI-H1155
[15] = target: Isoform 2 of Glycogen synthase kinase-3 beta ; GSK3B ; P49841-2 (Homo sapiens, UniProt P49841); set-up: species or system mixed lysate of K562, MV4-11, THP-1, NCI-H1155
Sequence of Isoform 2 of Glycogen synthase kinase-3 beta ; GSK3B ; P49841-2 (P49841 whole entry, canonical isoform): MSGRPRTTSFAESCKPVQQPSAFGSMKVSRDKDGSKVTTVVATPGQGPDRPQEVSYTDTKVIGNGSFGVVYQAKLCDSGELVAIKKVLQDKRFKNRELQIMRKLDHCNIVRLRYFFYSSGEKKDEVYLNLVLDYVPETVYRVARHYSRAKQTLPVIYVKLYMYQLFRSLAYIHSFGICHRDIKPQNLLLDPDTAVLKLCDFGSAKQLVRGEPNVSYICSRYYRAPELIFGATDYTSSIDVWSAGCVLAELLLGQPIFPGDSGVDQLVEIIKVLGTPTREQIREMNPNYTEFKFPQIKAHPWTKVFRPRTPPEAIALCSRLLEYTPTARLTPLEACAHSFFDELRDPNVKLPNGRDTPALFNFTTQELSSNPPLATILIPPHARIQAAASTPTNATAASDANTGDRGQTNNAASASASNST

[16] = target: Cyclin-dependent kinase 1 ; CDK1 ; P06493 (Homo sapiens, UniProt P06493); set-up: species or system mixed lysate of K562, MV4-11, THP-1, NCI-H1155
Sequence of Cyclin-dependent kinase 1 ; CDK1 ; P06493 (P06493 whole entry, canonical isoform, one chain of several): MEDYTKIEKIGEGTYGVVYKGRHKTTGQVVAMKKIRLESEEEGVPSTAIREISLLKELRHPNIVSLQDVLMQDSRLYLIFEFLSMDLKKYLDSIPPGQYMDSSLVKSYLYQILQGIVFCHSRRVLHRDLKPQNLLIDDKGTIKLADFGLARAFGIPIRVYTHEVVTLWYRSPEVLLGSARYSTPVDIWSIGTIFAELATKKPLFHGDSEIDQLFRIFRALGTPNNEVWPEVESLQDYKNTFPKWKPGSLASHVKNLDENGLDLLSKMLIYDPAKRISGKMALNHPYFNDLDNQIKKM

[17] = target: Isoform 4 of TRAF2 and NCK-interacting protein kinase ; TNIK ; Q9UKE5-4 (Homo sapiens, UniProt Q9UKE5); set-up: species or system mixed lysate of K562, MV4-11, THP-1, NCI-H1155
[18] = read-out: BAY-1143572 (10 µM) / %Intensity relative to DMSO
[19] = read-out: BAY-1251152 (10 µM) / %Intensity relative to DMSO

- IC50 [1]: 2.98 µM
- IC50 [2]: > 10 µM
- IC50 [3]: 0.649 µM
- IC50 [4]: 2.99 µM
- IC50 [5]: > 10 µM
- remaining activity at 10 µM [6, 18]: 24%
- remaining activity at 10 µM [7, 18]: 64.7%
- remaining activity at 10 µM [8, 18]: 3.85%
- remaining activity at 10 µM [9, 18]: 3.48%
- remaining activity at 10 µM [10, 18]: 94.2%
- remaining activity at 10 µM [11, 18]: 29.6%
- remaining activity at 10 µM [12, 18]: 97.8%
- remaining activity at 10 µM [13, 18]: 15.4%
- remaining activity at 10 µM [14, 18]: 58.1%
- remaining activity at 10 µM [15, 18]: 7.95%
- remaining activity at 10 µM [16, 18]: 99.5%
- remaining activity at 10 µM [17, 18]: 78.3%
Compound: COc1cc(F)ccc1-c1ncnc(Nc2cccc(C[S@](C)(=N)=O)c2)n1 [BAY-1143572]

- IC50 [1]: > 10 µM
- IC50 [2]: > 10 µM
- IC50 [3]: > 10 µM
- IC50 [4]: > 10 µM
- IC50 [5]: > 10 µM
- remaining activity at 10 µM [6, 19]: 86.2%
- remaining activity at 10 µM [7, 19]: 37.5%
- remaining activity at 10 µM [8, 19]: 2.79%
- remaining activity at 10 µM [9, 19]: 5.28%
- remaining activity at 10 µM [10, 19]: 82.1%
- remaining activity at 10 µM [11, 19]: 16.9%
- remaining activity at 10 µM [12, 19]: 90.5%
- remaining activity at 10 µM [13, 19]: 10.4%
- remaining activity at 10 µM [14, 19]: 25.7%
- remaining activity at 10 µM [15, 19]: 11.9%
- remaining activity at 10 µM [16, 19]: 89.7%
- remaining activity at 10 µM [17, 19]: 37.2%
Compound: COc1cc(F)ccc1-c1cc(Nc2cc(CS(C)(=N)=O)ccn2)ncc1F (stereo not shown) [BAY-1251152]
